The source of these data is US5817818A, “Androstenones” (Glaxo Wellcome Inc., priority 1996, dated 1998).

One may read the pKi as the Ki on a negative log10 scale, so that one unit is a factor of ten. Higher therefore signals a low Ki. One may read the pIC50 as −log10 of the IC50, conventionally taken in molar units.

Experiment [1] relates to porcine granulosa cell 3β-hydroxy-Δ^5 -steroid dehydrogenase/3-keto-Δ^5 -steroid isomerase (3BHSD). To be noted: cited from earlier work.
The test system of experiment [2] is bovine adrenal 3β-hydroxy-Δ^5 -steroid dehydrogenase/3-keto-Δ^5 -steroid isomerase (3BHSD). The note with it: cited from earlier work.
For experiment [3], the target named is T1, Human Adrenal 3BHSD (Homo sapiens, UniProt P26439).
T1 construct: microsomes derived from human adrenal tissues; from tissue; host or cells: human adrenal tissue, microsomes
T1 sequence (P26439 1-372): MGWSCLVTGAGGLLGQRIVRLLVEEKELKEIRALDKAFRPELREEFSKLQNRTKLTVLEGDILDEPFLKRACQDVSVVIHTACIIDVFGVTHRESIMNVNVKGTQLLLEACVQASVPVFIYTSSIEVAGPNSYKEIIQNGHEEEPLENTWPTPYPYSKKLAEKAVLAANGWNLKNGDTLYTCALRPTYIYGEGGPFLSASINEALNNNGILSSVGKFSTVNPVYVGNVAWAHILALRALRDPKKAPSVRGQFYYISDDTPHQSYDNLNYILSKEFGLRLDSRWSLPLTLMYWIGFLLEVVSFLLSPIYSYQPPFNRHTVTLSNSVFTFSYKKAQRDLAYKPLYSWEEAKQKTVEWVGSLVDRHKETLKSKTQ
The experiment is described as follows: Inhibition of human adrenal 3β-hydroxy-Δ^5-steroid dehydrogenase/3-keto-Δ^5-steroid isomerase (3BHSD) (microsomes; DHEA to androstenedione conversion). The experiment is classed as biochemical. To be noted: 1 mM NAD+, pH 7.5, 1 to 60 minutes. As to the method:
Enzyme activities are measured using microsomes derived from human adrenal tissues. Microsomes were prepared by homogenization of the tissue followed by differential centrifugation of the homogenate. Microsome extracts were incubated with varying concentrations of dehydroepiandrosterone (DHEA), 1 mM NAD+, and varying amounts of the compounds of Formula (I), i.e. a test compound, in pH 7.5 buffer for a period of time within the range of 1 to 60 minutes. Corresponding incubations were carried out with no test compound as a control study. The percentage of conversion of DHEA to androstenedione in the presence of test compounds compared to the corresponding conversion in the control study was estimated using HPLC with radiochemical detection.

Experiment [4] concerns the target T2, human type 1 5α-reductase (Homo sapiens, UniProt P18405).
T2 construct: made in house; host or cells: Sf9 insect cells, recombinant baculovirus; microsomes
T2 sequence (P18405 1-259): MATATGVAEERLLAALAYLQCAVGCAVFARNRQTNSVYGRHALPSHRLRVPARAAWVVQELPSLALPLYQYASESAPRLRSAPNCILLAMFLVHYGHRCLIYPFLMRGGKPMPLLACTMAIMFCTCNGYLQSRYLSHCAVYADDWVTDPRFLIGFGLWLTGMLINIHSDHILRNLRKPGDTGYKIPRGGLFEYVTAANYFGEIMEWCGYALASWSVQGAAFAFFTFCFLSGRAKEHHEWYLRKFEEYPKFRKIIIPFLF
Nature of the experiment: Inhibition of human type 1 steroid 5α-reductase (microsomes; testosterone to DHT conversion). The experiment is classed as biochemical. The note with it: 10 min preincubation, pH 7.0, 100 nM testosterone, 10-120 min, 1 mM NADPH; read-out: IC50 Human Type 1 5AR. As to the method: (§1) Enzyme activities may be determined using microsomes derived from: 1) prostate tissue from benign prostatic hyperplasia (BPH) patients; 2) recombinant baculovirus infected SF9 cells that express human type 1 5α-reductase; or 3) recombinant baculovirus infected SF9 cells that express human type 2 5α-reductase. Microsomes were prepared by homogenization of the tissue or cells, followed by differential centrifugation of the homogenate. Microsome extracts were incubated with varying concentrations of [1,2,6,7-^3 H]-testosterone, 1 mM NADPH, and varying amounts of the compounds of formula (I,) i.e. a test compound, in buffer containing a NADPH regenerating system capable of maintaining NADPH concentrations for a period of time within the range 0.5-240 minutes. Corresponding incubations were carried out with no test compound as a control study.
(§2) For type 1 IC50 measurements, assay components except testosterone were preincubated for 10 minutes at pH 7.0, and following the addition of 100 nM testosterone the assays were allowed to proceed for 10-120 minutes. For type 2 IC50 measurements, assay components except testosterone were preincubated for 20 minutes at pH 6.0, and following the addition of 8 nM testosterone the assays were allowed to proceed for 20-40 minutes. The percentage of conversion of testosterone to DHT in the presence of test compounds compared to the corresponding conversion in the control study was estimated using high performance liquid chromatography (HPLC) with radiochemical detection.

The target in experiment [5] is T3, human type 2 5α-reductase (Homo sapiens, UniProt P31213).
T3 construct: made in house; host or cells: Sf9 insect cells, recombinant baculovirus; microsomes
T3 sequence (P31213 1-254): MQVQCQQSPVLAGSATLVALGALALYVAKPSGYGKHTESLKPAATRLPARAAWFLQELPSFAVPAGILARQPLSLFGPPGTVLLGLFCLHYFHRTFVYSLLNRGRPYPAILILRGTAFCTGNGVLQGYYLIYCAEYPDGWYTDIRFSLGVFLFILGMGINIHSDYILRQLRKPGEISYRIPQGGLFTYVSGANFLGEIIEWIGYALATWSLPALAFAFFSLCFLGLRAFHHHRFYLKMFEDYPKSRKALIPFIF
Nature of the experiment: Inhibition of human type 2 steroid 5α-reductase (microsomes; testosterone to DHT conversion). The experiment is classed as biochemical. The note with it: 20 min preincubation, pH 6.0, 8 nM testosterone, 20-40 min, 1 mM NADPH; read-out: IC50 Human Type 2 5AR. As to the method:
as §1, §2

SMILES strings stand for the structures. pIC50, pKi: −log10 of the molar value. Bounds are passed on as bounds.

Take `CCN(CC)C(=O)[C@H]1CC[C@H]2[C@@H]3CC[C@H]4N(C)C(=O)CC[C@]4(C)[C@H]3CC[C@]12C` [Compound 4-MA]: the “inhibition of porcine granulosa cell 3BHSD” value in experiment [1] is given as “potent inhibition”. In addition, in experiment [2], the “inhibition of bovine adrenal 3BHSD” value was “potent inhibition”.

Regarding `CN1C(=O)CC[C@]2(C)[C@H]3CC[C@]4(C)[C@@H](C(=O)Nc5cc(C(C)(C)C)ccc5C(C)(C)C)CC[C@H]4[C@@H]3CC[C@@H]12` [Compound 29, 17β-N-(2,5-Di-t-butyl)phenylcarbamoyl-4-methyl-4-aza-5α-androstan-3-one], the pKi in experiment [3] is 5.00 to 8.00. Besides, the pIC50 in experiment [4] and in experiment [5] was over 9.00 throughout.

`C[C@H]1C[C@H]2NC(=O)C=C[C@]2(C)[C@H]2CC[C@]3(C)[C@@H](C(=O)Nc4cc(C(F)(F)F)ccc4C(F)(F)F)CC[C@H]3[C@H]12` [Compound 30, 17β-N-(2,5-bis(Trifluoromethyl))phenylcarbamoyl-4-aza-7β-methyl-5α-androst-1-en-3-one] gave a pKi in experiment [3] of under 6.00. The negative-log IC50 (pIC50) in experiment [4] and in experiment [5] was 8.00 to 9.00 in each case.

Regarding `C[C@H]1C[C@H]2NC(=O)C=C[C@]2(C)[C@H]2CC[C@]3(C)[C@@H](C(=O)Nc4cc(C(F)(F)F)ccc4C(C)(C)C)CC[C@H]3[C@H]12` [Compound 31, 17β-N-(2-t-Butyl-5-trifluoromethyl)phenylcarbamoyl-4-aza-7β-methyl-5α-androst-1-en-3-one], the pKi in experiment [3] is under 6.00. The pIC50 in experiment [4] and in experiment [5] was 8.00 to 9.00 each time.

As for `C[C@H]1C[C@H]2NC(=O)C=C[C@]2(C)[C@H]2CC[C@]3(C)[C@@H](C(=O)NC4(c5ccc(Cl)cc5)CCCC4)CC[C@H]3[C@H]12` [Compound 32, 17β-N-1-(4-Chlorophenyl)cyclopentylcarbamoyl-4-aza-7β-methyl-5α-androst-1-en-3-one], the pKi in experiment [3] was under 6.00. Moreover, the negative-log IC50 (pIC50) was 8.00 to 9.00 in experiment [4] and over 9.00 in experiment [5].

In experiment [3], `CC(C)(C)c1ccc(C2(NC(=O)[C@H]3CC[C@H]4[C@@H]5CC[C@H]6NC(=O)C=C[C@]6(C)[C@H]5CC[C@]34C)C3CCCC2CCC3)cc1` (stereo partly drawn) [Compound 33, 17β-N-9-(4-t-Butylphenyl)bicyclo[3.3.1]nonylcarbamoyl-4-aza-5α-androst-1-en-3-one] gave a negative-log Ki (pKi) of under 6.00. Further, the pIC50 in experiment [4] was 8.00 to 9.00; in experiment [5] it was over 9.00.
